Legend:
Format in all cases: cell-based
PfATP4 (PfATP4^OR line) [1] = biological target: T1, PfATP4 (PfATP4^OR line) (Plasmodium falciparum, UniProt A0A143ZZK9); assay: SBFI fluorescence of intracellular Na+ in saponin-isolated trophozoites; settings: 0.1 µM, physiological saline, pH 7.1, 37°C
T1 construct: gene ATP4; full-length recodonized coding region replacing pkatp4 in P. knowlesi A1-H.1; untagged; intact parasites
Text: SBFI fluorescence of intracellular Na+ in saponin-isolated trophozoites on PfATP4 (PfATP4^OR line)

PmATP4 (PmATP4^OR line) [2] = biological target: T2, PmATP4 (PmATP4^OR line) (Plasmodium malariae, UniProt A0A1A8WBD6); assay: as above; settings: 0.1 µM, physiological saline, pH 7.1, 37°C
T2 construct: gene ATP4; full-length recodonized coding region replacing pkatp4 in P. knowlesi A1-H.1; untagged; intact parasites
T2 sequence (A0A1A8WBD6 1-1380): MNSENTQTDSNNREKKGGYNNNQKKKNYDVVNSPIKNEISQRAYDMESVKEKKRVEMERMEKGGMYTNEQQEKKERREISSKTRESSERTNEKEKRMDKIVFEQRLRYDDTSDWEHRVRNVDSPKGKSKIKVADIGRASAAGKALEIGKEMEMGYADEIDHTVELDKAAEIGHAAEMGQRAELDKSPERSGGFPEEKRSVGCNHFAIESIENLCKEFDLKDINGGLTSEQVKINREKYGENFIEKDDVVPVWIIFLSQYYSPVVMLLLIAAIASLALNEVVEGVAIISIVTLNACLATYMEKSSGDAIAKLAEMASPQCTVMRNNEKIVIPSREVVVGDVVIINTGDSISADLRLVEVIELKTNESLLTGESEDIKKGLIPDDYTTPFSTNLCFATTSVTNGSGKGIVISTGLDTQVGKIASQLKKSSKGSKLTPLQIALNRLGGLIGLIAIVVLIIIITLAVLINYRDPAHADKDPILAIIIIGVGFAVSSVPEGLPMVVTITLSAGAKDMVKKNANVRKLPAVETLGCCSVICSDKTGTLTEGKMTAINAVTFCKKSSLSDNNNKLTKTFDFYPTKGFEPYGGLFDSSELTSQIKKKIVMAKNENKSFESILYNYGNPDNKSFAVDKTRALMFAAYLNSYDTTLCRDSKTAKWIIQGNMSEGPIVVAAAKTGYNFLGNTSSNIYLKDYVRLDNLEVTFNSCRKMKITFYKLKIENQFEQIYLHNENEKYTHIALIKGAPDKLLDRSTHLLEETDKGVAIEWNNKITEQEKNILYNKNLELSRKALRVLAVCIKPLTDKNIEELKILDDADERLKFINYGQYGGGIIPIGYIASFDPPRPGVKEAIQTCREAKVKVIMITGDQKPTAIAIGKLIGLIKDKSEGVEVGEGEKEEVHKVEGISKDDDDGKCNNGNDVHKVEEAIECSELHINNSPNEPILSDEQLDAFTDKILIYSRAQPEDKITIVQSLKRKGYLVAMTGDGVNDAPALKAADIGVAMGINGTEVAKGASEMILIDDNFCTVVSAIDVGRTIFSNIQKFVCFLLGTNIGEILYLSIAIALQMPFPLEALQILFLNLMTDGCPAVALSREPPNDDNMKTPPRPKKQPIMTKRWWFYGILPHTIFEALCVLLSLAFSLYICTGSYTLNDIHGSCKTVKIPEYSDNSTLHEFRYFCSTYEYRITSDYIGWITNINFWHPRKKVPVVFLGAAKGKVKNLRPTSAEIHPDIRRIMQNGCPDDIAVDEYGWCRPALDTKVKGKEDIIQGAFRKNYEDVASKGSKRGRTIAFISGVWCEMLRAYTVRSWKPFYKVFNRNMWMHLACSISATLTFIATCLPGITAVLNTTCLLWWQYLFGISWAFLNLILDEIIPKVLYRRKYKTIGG
Text: SBFI fluorescence of intracellular Na+ in saponin-isolated trophozoites on PmATP4 (PmATP4^OR line)

PkATP4 (PkATP4^OR line) [3] = biological target: T3, PkATP4 (PkATP4^OR line) (Plasmodium knowlesi, UniProt A0A384LKC1); assay: growth inhibition of orthologue replacement parasite line, SYBR green I (whole-cell read-out); settings: intact P. knowlesi parasites in erythrocytes, 27 h (one life cycle); not a direct enzyme assay
T3 construct: gene PKNH_1312000; untagged; intact parasites
T3 sequence (A0A384LKC1 1-1293): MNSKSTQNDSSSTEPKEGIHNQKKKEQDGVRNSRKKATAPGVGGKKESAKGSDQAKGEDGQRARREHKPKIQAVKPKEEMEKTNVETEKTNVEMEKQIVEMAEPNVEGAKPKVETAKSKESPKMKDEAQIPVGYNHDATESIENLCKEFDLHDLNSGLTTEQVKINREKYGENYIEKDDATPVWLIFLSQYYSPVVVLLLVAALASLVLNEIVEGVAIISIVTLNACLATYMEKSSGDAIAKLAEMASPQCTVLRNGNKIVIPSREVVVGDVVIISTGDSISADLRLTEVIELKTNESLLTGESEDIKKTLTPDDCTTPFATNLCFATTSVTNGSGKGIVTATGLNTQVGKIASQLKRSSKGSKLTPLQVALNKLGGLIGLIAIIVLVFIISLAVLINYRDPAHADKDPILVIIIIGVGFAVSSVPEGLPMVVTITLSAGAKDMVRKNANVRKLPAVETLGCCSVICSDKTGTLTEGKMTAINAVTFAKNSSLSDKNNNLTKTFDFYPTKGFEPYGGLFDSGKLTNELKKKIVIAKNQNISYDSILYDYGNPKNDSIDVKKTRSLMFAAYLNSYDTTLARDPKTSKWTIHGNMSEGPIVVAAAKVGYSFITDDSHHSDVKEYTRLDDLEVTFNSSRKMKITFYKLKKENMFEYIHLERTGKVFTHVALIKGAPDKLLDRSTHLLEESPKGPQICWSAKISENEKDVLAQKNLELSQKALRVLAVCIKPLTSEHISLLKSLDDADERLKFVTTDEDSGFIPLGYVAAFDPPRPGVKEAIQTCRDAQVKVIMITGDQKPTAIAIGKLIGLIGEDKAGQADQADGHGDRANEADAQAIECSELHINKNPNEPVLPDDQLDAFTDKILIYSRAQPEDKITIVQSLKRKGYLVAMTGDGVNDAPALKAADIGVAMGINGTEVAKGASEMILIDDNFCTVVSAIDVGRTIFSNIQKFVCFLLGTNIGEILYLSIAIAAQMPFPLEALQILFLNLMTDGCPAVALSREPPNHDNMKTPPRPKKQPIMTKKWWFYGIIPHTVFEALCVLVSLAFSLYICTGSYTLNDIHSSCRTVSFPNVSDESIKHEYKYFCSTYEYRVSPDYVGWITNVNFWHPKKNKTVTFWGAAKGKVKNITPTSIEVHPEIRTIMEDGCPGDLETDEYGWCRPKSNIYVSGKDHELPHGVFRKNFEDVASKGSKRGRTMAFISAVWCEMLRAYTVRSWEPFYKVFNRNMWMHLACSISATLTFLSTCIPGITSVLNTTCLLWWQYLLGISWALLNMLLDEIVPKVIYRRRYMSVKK
Text: growth inhibition of orthologue replacement parasite line, SYBR green I (whole-cell read-out) on PkATP4 (PkATP4^OR line)

PkATP4 (PkATP4^OR line) [4] = biological target: T3, PkATP4 (PkATP4^OR line); assay: SBFI fluorescence of intracellular Na+ in saponin-isolated trophozoites; settings: 0.1 µM, physiological saline, pH 7.1, 37°C
Text: SBFI fluorescence of intracellular Na+ in saponin-isolated trophozoites on PkATP4 (PkATP4^OR line)

PvATP4 (PvATP4^OR line) [5] = biological target: T4, PvATP4 (PvATP4^OR line) (Plasmodium vivax, UniProt A5K0L8); assay: as above; settings: 0.1 µM, physiological saline, pH 7.1, 37°C
T4 construct: gene PVX_084625; full-length recodonized coding region replacing pkatp4 in P. knowlesi A1-H.1; untagged; intact parasites
Text: SBFI fluorescence of intracellular Na+ in saponin-isolated trophozoites on PvATP4 (PvATP4^OR line)

PmATP4 (PmATP4^OR line) [6] = biological target: T2, PmATP4 (PmATP4^OR line); assay: growth inhibition of orthologue replacement parasite line, SYBR green I (whole-cell read-out); settings: intact P. knowlesi parasites in erythrocytes, 27 h (one life cycle); not a direct enzyme assay
Text: growth inhibition of orthologue replacement parasite line, SYBR green I (whole-cell read-out) on PmATP4 (PmATP4^OR line)

PvATP4 (PvATP4^OR line) [7] = biological target: T4, PvATP4 (PvATP4^OR line); assay: as above; settings: intact P. knowlesi parasites in erythrocytes, 27 h (one life cycle); not a direct enzyme assay
Text: growth inhibition of orthologue replacement parasite line, SYBR green I (whole-cell read-out) on PvATP4 (PvATP4^OR line)

[8] = biological target: T5, PocATP4 (PocATP4^OR line) (Plasmodium ovale, UniProt A0A1D3TM67); assay: SBFI fluorescence of intracellular Na+ in saponin-isolated trophozoites; settings: 0.1 µM, physiological saline, pH 7.1, 37°C
T5 construct: gene ATP4; full-length recodonized coding region replacing pkatp4 in P. knowlesi A1-H.1; untagged; intact parasites
T5 sequence (A0A1D3TM67 1-1433): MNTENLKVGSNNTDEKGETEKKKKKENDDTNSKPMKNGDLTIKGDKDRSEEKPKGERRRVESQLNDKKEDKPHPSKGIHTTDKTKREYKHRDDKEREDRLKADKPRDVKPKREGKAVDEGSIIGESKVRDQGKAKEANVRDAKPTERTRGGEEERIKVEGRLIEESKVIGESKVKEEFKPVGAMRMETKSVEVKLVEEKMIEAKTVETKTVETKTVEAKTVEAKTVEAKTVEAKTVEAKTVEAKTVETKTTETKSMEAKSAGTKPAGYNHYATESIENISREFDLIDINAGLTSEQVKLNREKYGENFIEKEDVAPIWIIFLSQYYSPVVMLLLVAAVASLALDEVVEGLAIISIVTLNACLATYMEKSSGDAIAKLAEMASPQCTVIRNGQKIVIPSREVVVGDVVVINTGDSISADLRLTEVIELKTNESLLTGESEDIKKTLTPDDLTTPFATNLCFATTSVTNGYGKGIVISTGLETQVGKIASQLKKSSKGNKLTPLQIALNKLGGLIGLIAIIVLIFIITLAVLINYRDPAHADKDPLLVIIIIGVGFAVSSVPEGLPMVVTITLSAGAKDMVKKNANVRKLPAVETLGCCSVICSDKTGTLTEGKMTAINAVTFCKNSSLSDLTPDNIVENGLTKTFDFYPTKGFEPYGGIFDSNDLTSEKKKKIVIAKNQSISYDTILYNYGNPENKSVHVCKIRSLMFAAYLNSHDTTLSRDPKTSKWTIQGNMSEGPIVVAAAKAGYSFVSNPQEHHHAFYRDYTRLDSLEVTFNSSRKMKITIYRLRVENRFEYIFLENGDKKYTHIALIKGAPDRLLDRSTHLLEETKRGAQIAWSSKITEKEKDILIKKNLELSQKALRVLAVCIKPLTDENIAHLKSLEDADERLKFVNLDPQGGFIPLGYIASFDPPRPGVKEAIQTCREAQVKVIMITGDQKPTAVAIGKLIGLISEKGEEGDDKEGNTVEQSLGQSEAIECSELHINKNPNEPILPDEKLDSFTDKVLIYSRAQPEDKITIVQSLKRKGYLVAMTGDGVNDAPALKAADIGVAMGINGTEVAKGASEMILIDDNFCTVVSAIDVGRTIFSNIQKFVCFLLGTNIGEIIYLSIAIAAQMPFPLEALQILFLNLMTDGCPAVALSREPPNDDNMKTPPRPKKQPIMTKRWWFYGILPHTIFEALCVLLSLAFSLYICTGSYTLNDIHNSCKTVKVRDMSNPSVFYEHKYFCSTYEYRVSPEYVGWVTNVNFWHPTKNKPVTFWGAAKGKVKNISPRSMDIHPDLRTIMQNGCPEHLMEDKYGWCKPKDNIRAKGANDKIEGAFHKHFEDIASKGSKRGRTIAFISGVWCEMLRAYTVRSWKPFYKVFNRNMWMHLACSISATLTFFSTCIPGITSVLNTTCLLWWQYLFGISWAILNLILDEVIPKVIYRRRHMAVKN
Text: SBFI fluorescence of intracellular Na+ in saponin-isolated trophozoites on PocATP4 (PocATP4^OR line)

[9] = biological target: T5, PocATP4 (PocATP4^OR line); assay: growth inhibition of orthologue replacement parasite line, SYBR green I (whole-cell read-out); settings: intact P. knowlesi parasites in erythrocytes, 27 h (one life cycle); not a direct enzyme assay
Text: growth inhibition of orthologue replacement parasite line, SYBR green I (whole-cell read-out) on PocATP4 (PocATP4^OR line)

PfATP4 (PfATP4^OR line) [10] = biological target: T1, PfATP4 (PfATP4^OR line); assay: as above; settings: intact P. knowlesi parasites in erythrocytes, 27 h (one life cycle); not a direct enzyme assay
Text: growth inhibition of orthologue replacement parasite line, SYBR green I (whole-cell read-out) on PfATP4 (PfATP4^OR line)

T1 sequence (A0A143ZZK9 whole entry): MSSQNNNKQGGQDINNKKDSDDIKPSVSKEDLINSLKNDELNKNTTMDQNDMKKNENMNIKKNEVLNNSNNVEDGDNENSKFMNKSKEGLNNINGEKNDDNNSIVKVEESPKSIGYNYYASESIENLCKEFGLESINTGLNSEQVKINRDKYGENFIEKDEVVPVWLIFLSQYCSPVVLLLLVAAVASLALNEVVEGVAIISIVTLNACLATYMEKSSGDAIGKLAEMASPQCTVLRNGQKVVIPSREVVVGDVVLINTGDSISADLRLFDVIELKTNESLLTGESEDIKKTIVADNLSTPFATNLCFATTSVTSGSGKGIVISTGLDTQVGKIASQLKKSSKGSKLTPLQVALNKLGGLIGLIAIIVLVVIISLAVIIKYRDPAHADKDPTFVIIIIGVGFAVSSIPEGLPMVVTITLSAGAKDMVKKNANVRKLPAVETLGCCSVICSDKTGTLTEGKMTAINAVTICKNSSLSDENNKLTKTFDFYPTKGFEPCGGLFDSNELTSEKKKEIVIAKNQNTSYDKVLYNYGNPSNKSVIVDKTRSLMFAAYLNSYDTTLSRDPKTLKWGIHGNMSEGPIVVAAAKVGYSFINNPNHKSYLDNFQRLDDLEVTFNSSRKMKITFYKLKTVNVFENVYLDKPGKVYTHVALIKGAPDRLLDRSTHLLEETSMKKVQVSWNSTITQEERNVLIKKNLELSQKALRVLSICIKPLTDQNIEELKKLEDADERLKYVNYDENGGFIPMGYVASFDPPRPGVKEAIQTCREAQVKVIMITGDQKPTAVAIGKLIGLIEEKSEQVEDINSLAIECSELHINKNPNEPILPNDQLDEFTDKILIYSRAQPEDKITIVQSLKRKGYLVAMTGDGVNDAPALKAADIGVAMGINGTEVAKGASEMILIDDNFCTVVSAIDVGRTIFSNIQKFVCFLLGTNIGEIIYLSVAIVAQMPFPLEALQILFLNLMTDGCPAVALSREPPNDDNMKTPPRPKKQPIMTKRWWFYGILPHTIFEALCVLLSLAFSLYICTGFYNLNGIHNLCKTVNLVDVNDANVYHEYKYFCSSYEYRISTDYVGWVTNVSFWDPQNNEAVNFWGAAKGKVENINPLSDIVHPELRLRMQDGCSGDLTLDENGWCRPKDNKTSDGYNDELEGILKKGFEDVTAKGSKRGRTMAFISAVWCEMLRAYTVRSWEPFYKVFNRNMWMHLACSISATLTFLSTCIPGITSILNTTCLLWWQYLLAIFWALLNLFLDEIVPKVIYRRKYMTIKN

## C[C@H]1Cc2c([nH]c3cc(Cl)c(F)cc23)[C@@]2(N1)C(=O)Nc1ccc(Cl)cc12 [cipargamin]
PfATP4 (PfATP4^OR line) [1]
  Rate of increase in [Na^+]i 10 min after cipargamin exposure, μM/s (P value): 203.2 ± 54.1 µM/s
PmATP4 (PmATP4^OR line) [2]
  Rate of increase in [Na^+]i 10 min after cipargamin exposure, μM/s (P value): 35.7 ± 8.07 µM/s
PkATP4 (PkATP4^OR line) [3]
  EC50, nM (P value) / Cipargamin: 13.5 ± 2.4 nM
PkATP4 (PkATP4^OR line) [4]
  Rate of increase in [Na^+]i 10 min after cipargamin exposure, μM/s (P value): 35.8 ± 9.98 µM/s
PvATP4 (PvATP4^OR line) [5]
  Rate of increase in [Na^+]i 10 min after cipargamin exposure, μM/s (P value): 96.6 ± 47.3 µM/s
PmATP4 (PmATP4^OR line) [6]
  EC50, nM (P value) / Cipargamin: 9.44 ± 2.0 nM
PvATP4 (PvATP4^OR line) [7]
  EC50, nM (P value) / Cipargamin: 22.9 ± 4.2 nM
[8]
  Rate of increase in [Na^+]i 10 min after cipargamin exposure, μM/s (P value): 41.5 ± 8.85 µM/s
[9]
  EC50, nM (P value) / Cipargamin: 34.1 ± 1.6 nM
PfATP4 (PfATP4^OR line) [10]
  EC50, nM (P value) / Cipargamin: 1.62 ± 0.37 nM

— publication PMC9600963, “Cation ATPase (ATP4) Orthologue Replacement in the Malaria Parasite Plasmodium knowlesi Reveals Species-Specific Responses to ATP4-Targeting Drugs” (mBio, 2022)
